Measurements as given in ChEMBL document CHEMBL4602643, “Anti-inflammatory activities of isopimara-8(14),-15-diene diterpenoids and mode of action of kaempulchraols P and Q from Kaempferia pulchra rhizomes” (Bioorg Med Chem Lett, 2020).

Legend:
RAW264.7 [1] = experiment: Anti-inflammatory activity in mouse RAW264.7 cells assessed as inhibition of LPS-induced NO production at 10 uM relative to control; type: functional
RAW264.7 [2] = experiment: Anti-inflammatory activity in mouse RAW264.7 cells assessed as inhibition of LPS-induced NO production at 100 uM relative to control; type: functional
RAW264.7 [3] = experiment: Anti-inflammatory activity in mouse RAW264.7 cells assessed as inhibition of LPS-induced NO production at 5 uM relative to control; type: functional
[4] = Cytotoxicity against mouse RAW264.7 cells assessed as cell survival at 100 uM; type: cell-based; conditions: read-out: Activity
[5] = Cytotoxicity against mouse RAW264.7 cells assessed as cell survival at 50 uM; type: cell-based; conditions: read-out: Activity
RAW264.7 [6] = experiment: Anti-inflammatory activity in mouse RAW264.7 cells assessed as inhibition of LPS-induced NO production at 50 uM relative to control; type: functional
[7] = Cytotoxicity against mouse RAW264.7 cells assessed as cell survival at 5 uM; type: cell-based; conditions: read-out: Activity
[8] = Cytotoxicity against mouse RAW264.7 cells assessed as cell survival at 10 uM; type: cell-based; conditions: read-out: Activity
RAW264.7 [9] = experiment: Anti-inflammatory activity in mouse RAW264.7 cells assessed as inhibition of LPS-induced NO production; type: functional, cell-based
J774.1 = experiment: Anti-inflammatory activity in mouse J774.1 cells assessed as inhibition of LPS-induced NO production preincubated for 2 hrs before LPS stimulation and measured after 24 hrs by Griess method; type: functional, cell-based

| Compound | inhibition at 10 µM (RAW264.7 [1]) [%] | inhibition at 100 µM (RAW264.7 [2]) [%] | inhibition at 5 µM (RAW264.7 [3]) [%] | viability at 100 µM [4] [%] | viability at 50 µM [5] [%] | inhibition at 50 µM (RAW264.7 [6]) [%] | viability at 5 µM [7] [%] | viability at 10 µM [8] [%] | IC50 (RAW264.7 [9]) [µM] | IC50 (J774.1) [µM] |
| --- | --- | --- | --- | --- | --- | --- | --- | --- | --- | --- |
| C=C[C@]1(C)C=C2CC[C@H]3C(C)(C)CC[C@H](O)[C@]3(C)[C@H]2CC1 | 14 | 80.5 | 27.2 | 3.78 | 67.6 | 47.5 | 57.7 | 77.4 | 53.8 |  |
| C=C[C@]1(C)C[C@@H](OC(=O)c2ccccc2)[C@H]2[C@](O)(C1=O)[C@H](OC(C)=O)C[C@H]1C(C)(C)[C@H](OC(C)=O)[C@H](O)[C@H](OC(=O)c3ccccc3)[C@@]12C |  |  |  |  |  |  |  |  |  | 20.5 |
| C=C[C@]1(C)C=C2CC[C@H]3C(C)(C)C[C@H](O)[C@H](O)[C@]3(C)[C@@]2(O)CC1 | 7.8 | 20.8 | 18.1 | 27.6 | 27.5 | 21 | 85.7 | 85.3 | > 100 |  |
| C=C[C@]1(C)C=C2CC[C@H]3C(C)(C)C[C@H](O)[C@H](O)[C@]3(C)[C@H]2CC1 | 9.37 | 49.2 | 4.21 | 73.5 | 70.6 | 37.1 | 113 | 70.4 | 100 |  |
| C=C[C@]1(C)C=C2[C@@H](O)C[C@H]3C(C)(C)CCC[C@]3(C)[C@@]2(O)CC1 | 14.8 | -5.96 | 18.4 | 71.3 | 73.3 | 5.89 | 114 | 98.8 | > 100 |  |
| C=C[C@@]1(C)C=C2CC[C@@H]3C(C)(C)C[C@@H](O)C[C@@]3(C)[C@@H]2CC1 | 7.09 | 81.8 | 3.43 | 4.35 | 114 | 50.8 | 97.5 | 115 | 48.7 |  |
| C=C[C@]1(C)C=C2CC[C@H]3C(C)(C)C[C@H](O)[C@H](O)[C@]3(C)[C@H]2[C@H](O)C1 | 11.1 | 22.4 | 17.2 | 66.5 | 60.9 | 37.1 | 65.7 | 50.9 | > 100 |  |
| C=C[C@]1(C)C=C2C[C@@H](OC(C)=O)[C@H]3C(C)(C)CCC[C@]3(C)[C@@]2(O)CC1 | 9.03 | -3.85 | 17.7 | 76 | 68.8 | 7.9 | 76.9 | 82 | > 100 |  |
| C=C[C@@]1(C)C[C@@H](OC(=O)c2ccccc2)[C@@H]2[C@@]3(C)C=C(O)C(=O)C(C)(C)[C@@H]3C[C@@H](OC(C)=O)[C@@]2(O)C1=O |  |  |  |  |  |  |  |  |  | 14.4 |
| C=C[C@]1(C)C=C2CC[C@H]3C(C)(C)CC[C@H](O)[C@]3(C)[C@H]2[C@H](O)C1 | 6.28 | 50.4 | 13.4 | 27.8 | 35.9 | 46.6 | 78.4 | 86.7 | 95.3 |  |
| C=C[C@]1(C)C=C2[C@H](O)C[C@H]3C(C)(C)CCC[C@]3(C)[C@H]2CC1 | 14.4 | 67.6 | 17.4 | 34.2 | 58.8 | 59.3 | 76.9 | 65.8 | 41.7 |  |
| C=C[C@]1(C)C=C2C[C@@H](O)[C@H]3C(C)(C)CCC[C@]3(C)[C@@]2(OC)CC1 | 10.8 | 74.2 | 4.09 | 37.6 | 110 | 46.6 | 121 | 104 | 56.2 |  |
| C=C[C@]1(C)C=C2[C@H](OC(C)=O)C[C@H]3C(C)(C)CCC[C@]3(C)[C@@]2(O)CC1 | 14.9 | 80.5 | 20.7 | 4.72 | 88.7 | 59.5 | 71.5 | 98.3 | 41.5 |  |
| C=C[C@]1(C)C=C2C[C@@H](O)[C@H]3C(C)(C)CC[C@H](O)[C@]3(C)[C@H]2CC1 | 17.7 | 26.3 | 17.4 | 67 | 52.2 | 35.2 | 72.9 | 65.7 | > 100 |  |
| CNC(=N)NCCC[C@H](N)C(=O)O [TILARGININE ACETATE] | 27 | 58.2 | 22.8 | 103 | 107 | 46.3 | 112 | 92.6 | 65.5 |  |
| C=C[C@]1(C)C=C2C(=O)C[C@H]3C(C)(C)CCC[C@]3(C)[C@@]2(O)CC1 | 32.5 | 41.6 | 33.3 | 45.8 | 50.7 | 40.1 | 93.3 | 83.3 | > 100 |  |
| C=C[C@]1(C)C[C@@H](OC(=O)c2ccccc2)[C@H]2[C@](O)(C1=O)[C@H](OC(C)=O)C[C@H]1C(C)(C)[C@H](O)[C@H](OC(C)=O)[C@H](OC(=O)c3ccccc3)[C@@]12C |  |  |  |  |  |  |  |  |  | 11.5 |
| C=C[C@]1(C)C=C2C(=O)C[C@H]3C(C)(C)CC[C@H](O)[C@]3(C)[C@H]2CC1 | 7.8 | 35.5 | 16.5 | 77.8 | 86.8 | 25.1 | 86.6 | 92.4 | > 100 |  |
| C=C[C@]1(C)C=C2C[C@@H](O)[C@H]3C(C)(C)[C@H](O)C[C@H](O)[C@]3(C)[C@H]2CC1 | 15.2 | 24.1 | 9.01 | 101 | 89.4 | 34.3 | 104 | 113 | > 100 |  |
| C=C[C@]1(C)C=C2CC[C@H]3C(C)(C)[C@H](O)C[C@H](O)[C@]3(C)[C@H]2CC1 | 13.3 | 33.8 | 5.57 | 47.7 | 50 | 33.4 | 104 | 85.1 | > 100 |  |
